From article PMC11451730, “A Fragment-Based Screen for Inhibitors of Escherichia coli N5-CAIR Mutase” (Research Square, 2024)

Experiments:
E. coli N5-CAIR mutase [1] = target: T1, E. coli N5-CAIR mutase (Escherichia coli, UniProt P0AG18); assay: biochemical; type: biochemical
T1 construct: His-tag (inferred from cobalt-resin/imidazole purification); made in house; host or cells: E. coli BL21(DE3), plasmid pJK057 (Addgene)
T1 sequence (P0AG18 1-169): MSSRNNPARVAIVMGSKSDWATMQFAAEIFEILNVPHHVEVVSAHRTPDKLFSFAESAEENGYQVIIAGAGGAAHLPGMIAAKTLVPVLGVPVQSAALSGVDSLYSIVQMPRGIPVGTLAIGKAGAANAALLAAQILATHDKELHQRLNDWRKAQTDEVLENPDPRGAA

E. coli N5-CAIR mutase [2] = target: T1, E. coli N5-CAIR mutase; assay: Thermal shift assay (thermal binding assay); details: NAIR 20 μM, eight replicates; enzyme alone 57 ± 0.36°C
bacterial N5-CAIR mutase = details: bacterial enzyme; cited from earlier work
[3] = tested on: Gallus gallus AIR carboxylase; assay: Inhibition of AIR carboxylase by NAIR (literature); type: biochemical
[4] = target: Gallus gallus AIR carboxylase; details: cited from earlier work

SMILES	Ki (E. coli N5-CAIR mutase [1])	mechanism of inhibition (E. coli N5-CAIR mutase [1])	other results
CN1CCCC(c2cnc(-c3ncco3)cn2)C1 (stereo not drawn) [Compound 2]	4.8 µM	sigmoidal Michaelis-Menten curve	–
Cc1cnc(-c2ccc(C3CCCNC3)nc2)s1 (stereo not drawn) [Compound 9]	83 µM	competitive	–
CN1CCCC(Cc2cccnc2)C1 (stereo not drawn) [Compound 10]	–	–	inhibition of enzyme activity (E. coli N5-CAIR mutase [1]): no inhibition
Cc1nc(-c2ccc(C3CCCN3)nc2)sc1C (stereo not drawn) [Compound 22]	159 µM	uncompetitive	–
c1cnc(CC2CCNC2)nc1 (stereo not drawn) [Compound 25]	31 µM	non-competitive	–
Cc1ccc(Nc2nnns2)cc1 [Compound 34, reference compound]	–	–	inhibition of E. coli N5-CAIR mutase (E. coli N5-CAIR mutase [1]): do not show inhibition
CCc1ccc(C(=O)Nc2nncs2)s1 [Compound 35, reference compound]	–	–	inhibition of E. coli N5-CAIR mutase (E. coli N5-CAIR mutase [1]): do not show inhibition
Nc1c([N+](=O)[O-])ncn1[C@@H]1O[C@H](COP(=O)(O)O)[C@@H](O)[C@H]1O [NAIR, 4-nitro-5-aminoimidazole ribonucleotide]	–	–	average melting temperature of N5-CAIR mutase with compound bound (E. coli N5-CAIR mutase [2]): 75 ± 0.32 °C; Ki (bacterial N5-CAIR mutase): 0.5 µM; selectivity for AIR carboxylase over N5-CAIR mutase [3]: 1000 fold; Ki [4]: 0.00034 µM
